Measured values taken from patent publication US8362027B2, “Iontophoretic preparation for treatment of breast cancer and/or mastitis” (Kowa Co., Ltd., priority 2005, dated 2013).
Like-named read-outs stand apart in the source and are kept apart here. Values belong to the compound of their own block, whether it stands above or below them.

How the values were obtained:
[1] = not given; remark: listed apart in the source
[2] = nipple skin (corrected to nipple part only), no application of electric potential, 60 min
[3] = nipple skin (corrected to nipple part only), no application of electric potential, 120 min
[4] = nipple skin (corrected to nipple part only), no application of electric potential, 180 min
[5] = nipple skin, no application of electric potential

Compound: O=P1(N(CCCl)CCCl)NCCCO1 (stereo not shown) [cyclophosphamide]
permeated amount of cyclophosphamide (nipple skin (corrected to nipple part only), application of electric potential (0.1 mA/cm^2), 0 min): 0.0 μg/cm^2 | permeated amount of cyclophosphamide (nipple skin (corrected to nipple part only), application of electric potential (0.1 mA/cm^2), 30 min): 34.3 μg/cm^2 | permeated amount of cyclophosphamide (nipple skin (corrected to nipple part only), application of electric potential (0.1 mA/cm^2), 60 min): 123.2 μg/cm^2 | permeated amount of cyclophosphamide (nipple skin (corrected to nipple part only), application of electric potential (0.1 mA/cm^2), 90 min): 125.3 μg/cm^2 | permeated amount of cyclophosphamide (nipple skin (corrected to nipple part only), application of electric potential (0.1 mA/cm^2), 120 min): 121.4 μg/cm^2 | permeated amount of cyclophosphamide (nipple skin (corrected to nipple part only), application of electric potential (0.1 mA/cm^2), 150 min): 120.4 μg/cm^2 | permeated amount of cyclophosphamide (nipple skin (corrected to nipple part only), application of electric potential (0.1 mA/cm^2), 180 min): 123.1 μg/cm^2 | permeated amount of cyclophosphamide (nipple skin (corrected to nipple part only), no application of electric potential, 0 min): 0.0 μg/cm^2 | permeated amount of cyclophosphamide (nipple skin (corrected to nipple part only), no application of electric potential, 30 min): 24.9 μg/cm^2 | permeated amount of cyclophosphamide [2]: 2.0 μg/cm^2 | permeated amount of cyclophosphamide (nipple skin (corrected to nipple part only), no application of electric potential, 90 min): 6.9 μg/cm^2 | permeated amount of cyclophosphamide [3]: 20.2 μg/cm^2 | permeated amount of cyclophosphamide (nipple skin (corrected to nipple part only), no application of electric potential, 150 min): 1.4 μg/cm^2 | permeated amount of cyclophosphamide [4]: 6.9 μg/cm^2 | Increase rate of permeated amount after 180 minutes with respect to normal skin without application of electric potential (nipple skin, application of electric potential (0.1 mA/cm^2)): 7.1 | Increase rate of permeated amount after 180 minutes with respect to normal skin without application of electric potential [5]: 0.4 | change of permeability of cyclophosphamide (nipple without electric potential, compared with normal skin): not enhanced | increase of permeability of cyclophosphamide (nipple, electric potential (0.1 mA/cm^2), vs normal skin without potential): about 7.1 times | Increase rate of permeated amount after 180 minutes with respect to normal skin without application of electric potential (normal skin, application of electric potential (0.1 mA/cm^2)): 0.9 | permeated amount of cyclophosphamide (normal skin, application of electric potential (0.1 mA/cm^2), 0 min, donor 25 mM, pH 3): 0.0 μg/cm^2 | permeated amount of cyclophosphamide (normal skin, application of electric potential (0.1 mA/cm^2), 30 min, donor 25 mM, pH 3): 13.4 μg/cm^2 | permeated amount of cyclophosphamide (normal skin, application of electric potential (0.1 mA/cm^2), 60 min, donor 25 mM, pH 3): 13.9 μg/cm^2 | permeated amount of cyclophosphamide (normal skin, application of electric potential (0.1 mA/cm^2), 90 min, donor 25 mM, pH 3): 13.7 μg/cm^2 | permeated amount of cyclophosphamide (normal skin, application of electric potential (0.1 mA/cm^2), 120 min, donor 25 mM, pH 3): 16.2 μg/cm^2 | permeated amount of cyclophosphamide (normal skin, application of electric potential (0.1 mA/cm^2), 150 min, donor 25 mM, pH 3): 16.3 μg/cm^2 | permeated amount of cyclophosphamide (normal skin, application of electric potential (0.1 mA/cm^2), 180 min, donor 25 mM, pH 3): 16.2 μg/cm^2 | change of permeability of cyclophosphamide (normal skin, electric potential applied (0.1 mA/cm^2), vs without potential): hardly changed | permeated amount of cyclophosphamide (normal skin, no application of electric potential, 0 min, donor 25 mM, pH 3): 0.0 μg/cm^2 | permeated amount of cyclophosphamide (normal skin, no application of electric potential, 30 min, donor 25 mM, pH 3): 13.3 μg/cm^2 | permeated amount of cyclophosphamide (normal skin, no application of electric potential, 60 min, donor 25 mM, pH 3): 14.4 μg/cm^2 | permeated amount of cyclophosphamide (normal skin, no application of electric potential, 90 min, donor 25 mM, pH 3): 15.0 μg/cm^2 | permeated amount of cyclophosphamide (normal skin, no application of electric potential, 120 min, donor 25 mM, pH 3): 15.5 μg/cm^2 | permeated amount of cyclophosphamide (normal skin, no application of electric potential, 150 min, donor 25 mM, pH 3): 17.2 μg/cm^2 | permeated amount of cyclophosphamide (normal skin, no application of electric potential, 180 min, donor 25 mM, pH 3): 17.4 μg/cm^2

permeated amount of 5-fluorouracil ([1]; nipple skin (corrected to nipple part only), application of electric potential (3 V), 60 min): 17.6 μg/cm^2 | permeated amount of 5-fluorouracil ([1]; nipple skin (corrected to nipple part only), application of electric potential (3 V), 120 min): 151.7 μg/cm^2 | permeated amount of 5-fluorouracil ([1]; nipple skin (corrected to nipple part only), application of electric potential (3 V), 180 min): 383.3 μg/cm^2 | permeated amount of 5-fluorouracil ([1]; nipple skin (corrected to nipple part only), application of electric potential (3 V), 240 min): 676.3 μg/cm^2 | permeated amount of 5-fluorouracil ([1]; nipple skin (corrected to nipple part only), application of electric potential (3 V), 300 min): 1032.3 μg/cm^2 | permeated amount of 5-fluorouracil ([1]; nipple skin (corrected to nipple part only), application of electric potential (3 V), 360 min): 1391.3 μg/cm^2 | permeated amount of 5-fluorouracil [1, 2]: 0.0 μg/cm^2 | permeated amount of 5-fluorouracil [1, 3]: 0.2 μg/cm^2 | permeated amount of 5-fluorouracil [1, 4]: 0.7 μg/cm^2 | permeated amount of 5-fluorouracil ([1]; nipple skin (corrected to nipple part only), no application of electric potential, 240 min): 1.6 μg/cm^2 | permeated amount of 5-fluorouracil ([1]; nipple skin (corrected to nipple part only), no application of electric potential, 300 min): 3.0 μg/cm^2 | permeated amount of 5-fluorouracil ([1]; nipple skin (corrected to nipple part only), no application of electric potential, 360 min): 5.6 μg/cm^2 | Increase rate of permeated amount after 360 minutes with respect to normal skin without application of electric potential ([1]; nipple skin, application of electric potential (3 V)): 9937.8 | Increase rate of permeated amount after 360 minutes with respect to normal skin without application of electric potential [1, 5]: 39.7 | increase of permeability of 5-fluorouracil ([1]; nipple, compared with the permeability without application of electric potential): about 40 times | increase of permeability of 5-fluorouracil ([1]; nipple, electric potential applied (3V), vs normal skin): about 10000 times | Increase rate of permeated amount after 360 minutes with respect to normal skin without application of electric potential ([1]; normal skin, application of electric potential (3 V)): 3430.7 | permeated amount of 5-fluorouracil ([1]; normal skin, application of electric potential (3 V), 60 min, donor 1%, pH 8.5): 1.3 μg/cm^2 | permeated amount of 5-fluorouracil ([1]; normal skin, application of electric potential (3 V), 120 min, donor 1%, pH 8.5): 11.7 μg/cm^2 | permeated amount of 5-fluorouracil ([1]; normal skin, application of electric potential (3 V), 180 min, donor 1%, pH 8.5): 44.4 μg/cm^2 | permeated amount of 5-fluorouracil ([1]; normal skin, application of electric potential (3 V), 240 min, donor 1%, pH 8.5): 121.5 μg/cm^2 | permeated amount of 5-fluorouracil ([1]; normal skin, application of electric potential (3 V), 300 min, donor 1%, pH 8.5): 264.9 μg/cm^2 | permeated amount of 5-fluorouracil ([1]; normal skin, application of electric potential (3 V), 360 min, donor 1%, pH 8.5): 480.3 μg/cm^2 | increase of permeability of 5-fluorouracil ([1]; normal skin, electric potential applied (3V), vs without potential): about 3000 times | permeated amount of 5-fluorouracil ([1]; normal skin, no application of electric potential, 60 min, donor 1%, pH 8.5): 0.0 μg/cm^2 | permeated amount of 5-fluorouracil ([1]; normal skin, no application of electric potential, 120 min, donor 1%, pH 8.5): 0.0 μg/cm^2 | permeated amount of 5-fluorouracil ([1]; normal skin, no application of electric potential, 180 min, donor 1%, pH 8.5): 0.0 μg/cm^2 | permeated amount of 5-fluorouracil ([1]; normal skin, no application of electric potential, 240 min, donor 1%, pH 8.5): 0.0 μg/cm^2 | permeated amount of 5-fluorouracil ([1]; normal skin, no application of electric potential, 300 min, donor 1%, pH 8.5): 0.1 μg/cm^2 | permeated amount of 5-fluorouracil ([1]; normal skin, no application of electric potential, 360 min, donor 1%, pH 8.5): 0.1 μg/cm^2
Compound: O=c1[nH]cc(F)c(=O)[nH]1 [5-fluorouracil]
